Assay results taken from article PMC5426640, “A novel multifunctional peptide oligomer of bacitracin with possible bioindustrial and therapeutic applications from a Korean food-source Bacillus strain” (PLoS ONE, 2017).
Where a SMILES comes first, the peptide text is derived from it. Bridges are numbered along the chain shown (N, C = ends). [ ]: non-standard residue; d: D form. The star is where a group is joined. Ileψ(thiazoline)Cys = CC[C@H](C)[C@H](N)C1=N[C@H](C(=O)*)CS1; dOrn = NCCC[C@@H](N)C(=O)O

Assays:
Experiment in all cases: RT-PCR of mRNA expression in LPS-stimulated RAW 264.7 cells
Assay type in all cases: cell-based, mouse
Conditions in all cases: 10, 50, or 100 μg/mL, LPS 2–12 h, GAPDH control
COX-2 mRNA = test system: COX-2 mRNA
Procedure: (§1) Total RNA from the AMP-treated cells was prepared using the RNAiso Reagent (Takara) and was stored at −80°C until use. For the detection of iNOS, COX-2, TNF-α, IL-Iβ, and IL-6, total RNA was extracted after stimulation and treatment. The mRNA expression levels of iNOS, COX-2, TNF-α, IL-Iβ, and IL-6 in the treated cells were compared to the expression levels in control cells. One microgram of RNA was reverse-transcribed into cDNA and used as a template for PCR amplification. PCR was performed on a DNA Gene Cycler, under the following conditions: 40 cycles of denaturation at 94°C for 30 s, annealing at 58°C for 30 s, and primer extension at 72°C for 40 s. PCR products were analyzed on 1% agarose gels, and bands were visualized by ethidium bromide staining.

TNF-α mRNA = test system: TNF-α mRNA
Procedure: as §1

IL-6 mRNA = test system: IL-6 mRNA
Procedure: as §1

IL-1β mRNA = test system: IL-1β mRNA
Procedure: as §1

## CC[C@H](C)[C@H](N)C1=N[C@H](C(=O)N[C@@H](CC(C)C)C(=O)N[C@H](CCC(=O)O)C(=O)N[C@H](C(=O)N[C@H]2CCCCNC(=O)[C@H](CC(N)=O)NC(=O)[C@@H](CC(=O)O)NC(=O)[C@H](Cc3c[nH]cn3)NC(=O)[C@@H](Cc3ccccc3)NC(=O)[C@H]([C@@H](C)CC)NC(=O)[C@@H](CCCN)NC2=O)[C@@H](C)CC)CS1 [CSP32] ({Ileψ(thiazoline)Cys}-L[dE]IK[dOrn]I[dF]H[dD]N; lactam 4-C; N-terminus assumed)
COX-2 mRNA
  Effect on LPS-induced COX-2 mRNA expression: significantly attenuated iNOS and COX-2 mRNA upregulation in a dose-dependent manner
TNF-α mRNA
  Effect on LPS-induced TNF-α mRNA expression: dose-dependently attenuated the LPS-enhanced expression
IL-6 mRNA
  Effect on LPS-induced IL-6 mRNA expression: dose-dependently attenuated the LPS-enhanced expression
IL-1β mRNA
  Effect on LPS-induced IL-1β mRNA expression: dose-dependently attenuated the LPS-enhanced expression
